According to US20200061047A1, “NEW USE OF RIFAMYCIN-QUINOLIZIDONE DUAL-ACTION MOLECULE” (TenNor Therapeutics Limited, priority 2017, published 2020):
Converted amounts (≈) assume the structure as drawn. Read-outs that look alike come from different tables or passages of the source.

Key:
Assay type in all cases: cell-based
[1] = test system: Proteus vulgaris ATCC 1331; assay: MIC, agar dilution drug sensitivity test; conditions: Proteus vulgaris, ATCC1331, Proteus vulgaris ATCC 1331, read-out: MIC
[2] = test system: Bordetella avium ATCC 6945; assay: MIC, agar dilution drug sensitivity test; conditions: Bordetella avium, ATCC6945, Bordetella avium ATCC 6945, read-out: MIC
[3] = test system: Helicobacter pylori ATCC 700824; assay: MIC, agar dilution drug sensitivity test; conditions: ATCC700824, Table 1
[4] = test system: Proteus mirabilis JMI 933599; assay: MIC, agar dilution drug sensitivity test; conditions: JMI933599, Table 1
[5] = test system: Yersinia enterocolitica ATCC 23715; assay: MIC, agar dilution drug sensitivity test; conditions: ATCC23715, Table 1
[6] = test system: Escherichia coli ATCC 25922; assay: MIC, agar dilution drug sensitivity test; conditions: ATCC25922, Table 1
[7] = test system: Haemophilus influenzae ATCC 49247; assay: MIC, microscale broth dilution drug sensitivity test
Experimental: (§1) In this embodiment, compound I-rifamycin-quinolizidone dual-action molecule is used in a drug sensitivity test on pathogenic bacteria associated with hepatic encephalopathy, the pathogenic bacteria including the above ammonia-producing bacteria. Except that Haemophilus is tested using the microscale broth dilution method, all the other bacteria are tested using the agar dilution method consistent with that in the Guideline of the Clinical and Laboratory Standards Institute (CLSI; 1-3). All the other drug susceptibility tests are performed under anaerobic conditions except that some selective isolates are tested under both aerobic and anaerobic conditions. Control compounds include metronidazole, rifampicin, clindamycin (under anaerobic conditions) and ciprofloxacin (under aerobic and anaerobic conditions). The tested clinical isolates may be reference strains obtained from American Type Culture Collection, ATCC, Manassas, Va. After being received, the strains are respectively inoculated on appropriate agar plates and placed under optimized conditions for growth. The growing strains are cloned in the broth containing cryoprotectant to prepare bacterial suspensions, and the bacterial suspensions are subpackaged and then stored in freezing at −80° C. Before test, the frozen bacteria are inoculated into appropriate agar dishes and cultured for growth. Anaerobic bacteria grow for 48 hours at 35° C. in a Bactron II oxygen-free cabinet (Shel Lab, Cornelius, Oreg.) before test. Haemophilus Test Medium (HTM, Teknova, Hollister, Calif.; Art. No.: 895120) is used to perform drug sensitivity test on Hemophilus using the microscale broth dilution method under aerobic and anaerobic conditions. Preparation and storage of all the above broths are performed in accordance with CLSI (1-3).

[8] = test system: Haemophilus parainfluenzae ATCC 49247; assay: as above; conditions: ATCC49247; Haemophilus parainfluenzae ATCC 49247; Aerobic; read-out: MIC
Experimental: as §1

[9] = test system: Streptococcus salivarius ATCC 25975; assay: MIC, agar dilution drug sensitivity test; conditions: Streptococcus salivarius, ATCC25975, Streptococcus salivarius ATCC 25975, read-out: MIC
[10] = test system: Actinomyces naeslundii JMI 534283; assay: MIC, agar dilution drug sensitivity test; conditions: JMI534283, Aerobic
[11] = test system: Corynebacterium urealyticum JMI 2015_30; assay: MIC, agar dilution drug sensitivity test; conditions: Aerobic
[12] = test system: Clostridium difficile ATCC 700057; assay: MIC, agar dilution drug sensitivity test; conditions: Clostridioides difficile, ATCC700057
[13] = test system: Clostridium perfringens ATCC 13124; assay: microbe, parasite or virus in culture; conditions: ATCC13124
[14] = ATCC49247, Haemophilus influenzae ATCC 49247, Aerobic
[15] = ATCC49247, Haemophilus influenzae ATCC 49247, Anaerobic

Row | Compound | MIC ([1]; Aerobic) | MIC ([1]; Anaerobic) | MIC ([2]; Aerobic) | MIC ([2]; Anaerobic) | MIC [3] | MIC [4] | MIC [5] | MIC [6] | MIC [7, 14] | MIC [7, 15] | MIC [8] | MIC ([9]; Aerobic) | MIC ([9]; Anaerobic) | MIC [10] | MIC [11] | MIC [12] | MIC [13]
1 | O=C(O)c1cn(C2CC2)c2cc(N3CCNCC3)c(F)cc2c1=O [Ciprofloxacin, ciprofloxacin] | 0.03 µg/mL (≈ 0.0905 µM) | 0.03 µg/mL (≈ 0.0905 µM) | 1 µg/mL (≈ 3.02 µM) | 2 µg/mL (≈ 6.04 µM) | 0.12 µg/mL (≈ 0.362 µM) | 0.0015 µg/mL (≈ 0.00453 µM) | 0.015 µg/mL (≈ 0.0453 µM) | 0.008 µg/mL (≈ 0.0241 µM) | ≤ 0.12 µg/mL | ≤ 0.12 µg/mL | ≤ 0.12 µg/mL | 1 µg/mL (≈ 3.02 µM) | 2 µg/mL (≈ 6.04 µM) | 2 µg/mL (≈ 6.04 µM) | > 16 µg/mL |  | 
2 | CO[C@H]1/C=C/O[C@@]2(C)Oc3c(C)c(O)c4c(O)c(c(/C=N/N5CCC(N(C)C6([C@@H]7CCN(c8c(F)cn9c(=O)c(C(=O)O)cc(C%10CC%10)c9c8C)C7)CC6)CC5)c(O)c4c3C2=O)NC(=O)/C(C)=C\C=C\[C@H](C)[C@H](O)[C@@H](C)[C@@H](O)[C@@H](C)[C@H](OC(C)=O)[C@@H]1C [Compound I, (R)-3-[(4-{1-[1-(3-carboxy-1-cyclopropyl-7-fluoro-9-methyl-4-oxo-4H-quinolizine-8-yl)-pyrrolidin-3-yl-cyclopropyl]-methylamino}-piperidin-1-ylimino)-methylene]-rifamycin SV] | 0.5 µg/mL (≈ 0.415 µM) | > 64 µg/mL | 4 µg/mL (≈ 3.32 µM) | > 64 µg/mL | 0.12 µg/mL (≈ 0.0996 µM) | 8 µg/mL (≈ 6.64 µM) | 0.12 µg/mL (≈ 0.0996 µM) | 0.12 µg/mL (≈ 0.0996 µM) | 0.12 µg/mL (≈ 0.0996 µM) | 0.12 µg/mL (≈ 0.0996 µM) | 0.25 µg/mL (≈ 0.207 µM) | 0.5 µg/mL (≈ 0.415 µM) | > 64 µg/mL | 0.03 µg/mL (≈ 0.0249 µM) | 0.03 µg/mL (≈ 0.0249 µM) | 4 ng/mL (≈ 0.00332 µM) | 0.03 µg/mL (≈ 0.0249 µM)
